# In patent publication US20020107197A1, “Ligands for G protein coupled receptors and methods of using them” (priority 2000, published 2002):
# Key:
# [1] = target: T1, GPR4 (Homo sapiens, UniProt P46093); assay: Single-cell intracellular calcium assay (fura-2) in GPR4-GFP-transfected MCF10A cells; format: cell-based; settings: for increase in [Ca2+]i in GPR4- vs vector-transfected/parental MCF10A cells: lipid at 1 μM; for EC50: GPR4-transfected MCF10A cells, 1 mM EGTA, read-out: EC50 of calcium mobilization; for block of the lipid-induced increase in [Ca2+]i by BSA: lipid 1 μM preincubated with 0.5% fatty acid-free BSA, lipid:BSA approximately 1:75
# T1 construct: were used to generate full length GPR4, which was digested with EcoRI and Xba I and cloned into the pBs3HA vector; expressed in transfected cells
# Method: Measurement of [Ca^2+]i, was performed as described previously in Xu et al. (2000) Nat Cell Biol 2, 261-267. Briefly, pGPR4-GFP-transfected MCF10A cells were grown in specialized glass-bottom dishes (Bioptech, Inc., Butler, Pa.) and loaded with fura-2 in HEPES buffered saline. Using a dual-wavelength spectrofluorometer (RFK-6002, Photon Technology Int'l, So. Brunswick, N.J.) coupled to an inverted fluorescence microscope (Olympus, IX-70, Lake Success, N.Y.), GFP-positive cells were identified using an excitation wavelength of 488 nm, a dichroic 505 nm long-pass filter and an emitter filter at bandpass of 535 nm (Chroma Technology, Brattleboro, Vt.). Measurements of [Ca^2+]i were performed on individual GPR4-GFP positive cells at excitation wavelengths of 340 and 380 nm and an emission wavelength of 510 nm. Conversion of the 340/380 ratio value into [Ca^2+]i in nM was estimated by comparing the cellular fluorescence ratio with ratios acquired using fura-2 (free acid) in buffers containing known Ca^2+ concentrations. [Ca^2+]i was then calculated as described by Grynkiewicz et al. (1985) J Biol Chem 260, 3440-3450. All calcium assays were performed in the presence of 1 mM EGTA in the assay buffers. Therefore, intracellular calcium release, not calcium influx, was analyzed.
# To test whether GPR4 is a receptor for SPC, MCF10A cells were transiently transfected with pGPR4-GFP.
# The GFP receptor fusion was used to identify positively transfected cells, and single-cell calcium assays were performed as described in our previous studies, such as Xu et al. (2000) Nat Cell Biol 2, 261-267.
# [2] = target: T1, GPR4; assay: SRE luciferase reporter in GPR4-transfected HEK293 cells; format: cell-based; settings: GPR4-transfected HEK293 cells; for EC50: read-out: EC50 for the activation of SRE; for activation of SRE reporter: lipid 1 μM
# In short: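 HEK293 cells, vector-, GPR4- or TDAG8-transfected, co-transfected with pSRE-Luc, serum-starved 16 h, then given SPC or other lipids in serum-free RPMI 1640 for 10 h before luciferase readout from lysates. Where used, PTX (100 ng/ml) added during starvation; C3-exoenzyme plasmid co-transfected. Quadruplicates, Student's t test, p<0.05.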
# [3] = target: T1, GPR4; assay: Radioligand binding to homogenates of GPR4-transfected CHO cells; settings: GPR4-transfected CHO cell homogenates; for maximum binding capacity / Kd: 4° C.; for Kd: Scatchard analysis, [3H]SPC or [3H]16:0-LPC, read-out: dissociation constant (Kd); for competition for binding of [3H]SPC and [3H]16:0-LPC to GPR4: cold competitors
# Method: To characterize the binding of SPC and LPC to GPR4 and TDAG8, we conducted radioligand binding assays. CHO cells were chosen for GPR4 binding assays, since HEK293 cells express relatively high levels of endogenous GPR4. CHO cells stably transfected with empty vector or GPR4 were serum starved for 20 h, then collected after exposure to 2 mM EDTA in PBS. The pelleted cells were stored at −80° C. until use. Binding assays were performed essentially as described previously (Xu et al. (2000) Nat Cell Biol 2, 261-267), except binding was performed at 4° C. Briefly, frozen cells (10^6 cells/ml) were homogenized in a binding buffer. Assays were performed in 96-well plates in triplicate with 100 μl cell homogenate (equivalent to 10^5 cells/well). Different amounts of [^3H]SPC or [^3H]16:0-LPC were added to the cell homogenates in 50 μl of binding buffer, in the presence or absence of cold SPC or 16:0-LPC, or other competitors. The plates were incubated at 4° C. for 120 min, unless otherwise indicated. Cell-bound [^3H]SPC or [^3H]LPC was collected onto a filter (Printed Filtermat A, Wallac, Gaithersburg, Md.) using an automated cell harvester (HARVESTER 96, Tomtec, Orange, Conn.). Specific binding was calculated by subtraction of nonspecific binding (binding detected in the presence of 100-fold excess unlabeled SPC or 16:0-LPC) from the total binding.
# Cell homogenates were used for binding assays. Binding was conducted at 4° C. for 120 min or as indicated. [^3H]SPC and [^3H]16:0-LPC specifically bound to cell homogenates from GPR4-transfected CHO cells in a time-dependent manner and reached equilibrium after 60 min incubation at 4° C. […] The maximum binding capacities for SPC and 16:0-LPC were 996 fmole/10^5 cells for SPC and 1,528 fmole/10^5 cells for 16:0-LPC. […] Binding assays using [^3H]18:0-LPC gave similar results. We also tested the four glycosphingolipids, Psy, Glu-Sph, Gal-Cer, and Lac-Cer, for their ability to compete for the binding of [^3H]SPC and [^3H]16:0-LPC to GPR4.
# [4] = target: T2, TDAG8 (Homo sapiens, UniProt Q8IYL9); assay: Transwell cell migration of TDAG8-transfected HEK293 cells; format: cell-based; settings: TDAG8 overexpressed in HEK293 cells
# T2 construct: expressed in transfected cells
# Method: To determine whether GPR4 and/or TDGA8 can mediate the LPC-induced cell migration, we transfected HEK293 cells with GPR4 or TDAG8. Cell migration was performed in Transwell apparatus. GPR4-transfected HEK293 cells, and TDAG8-transfected HEK293 cells migrated to the low-phase of the membrane and the lower chamber of the Transwell in response to SPC and LPC, used at 0.2 μM.
# T1 sequence (P46093 whole entry): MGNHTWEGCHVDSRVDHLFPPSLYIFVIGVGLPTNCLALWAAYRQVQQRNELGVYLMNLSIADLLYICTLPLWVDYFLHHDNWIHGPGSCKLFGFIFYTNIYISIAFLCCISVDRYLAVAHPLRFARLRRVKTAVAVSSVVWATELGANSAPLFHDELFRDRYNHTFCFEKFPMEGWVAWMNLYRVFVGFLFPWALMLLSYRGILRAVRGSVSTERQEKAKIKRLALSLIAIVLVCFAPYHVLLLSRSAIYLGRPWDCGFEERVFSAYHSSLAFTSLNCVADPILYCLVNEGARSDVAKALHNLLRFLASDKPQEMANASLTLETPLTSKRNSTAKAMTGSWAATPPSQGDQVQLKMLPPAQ
# T2 sequence (Q8IYL9 whole entry): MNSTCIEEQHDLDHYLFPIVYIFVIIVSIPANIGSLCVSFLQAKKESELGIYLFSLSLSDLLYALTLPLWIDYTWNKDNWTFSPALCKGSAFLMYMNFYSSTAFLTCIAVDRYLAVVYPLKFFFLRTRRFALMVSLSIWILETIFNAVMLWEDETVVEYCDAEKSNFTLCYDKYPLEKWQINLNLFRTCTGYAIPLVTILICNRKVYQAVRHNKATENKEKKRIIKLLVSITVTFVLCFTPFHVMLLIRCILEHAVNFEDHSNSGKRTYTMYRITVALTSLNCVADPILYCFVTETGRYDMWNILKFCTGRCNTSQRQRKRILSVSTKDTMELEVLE
Compound,increase in [Ca2+]i in GPR4- vs vector-transfected/parental MCF10A cells [1],EC50 [2],activation of SRE reporter [2],maximum binding capacity [3],Kd [3],competition for binding of [3H]SPC and [3H]16:0-LPC to GPR4 [3],EC50 [1],block of the lipid-induced increase in [Ca2+]i by BSA [1],increase of cell migration compared with control cells [4]
CCCCCCCCCCCCCCCC(=O)OC[C@@H](O)COP(=O)([O-])OCC[N+](C)(C)C [16:0-LPC],stimulated to produce increased [Ca^2+]i,160 nM,3.1 fold,"1,528 fmole/10^5 cells",159 nM,successfully competed for binding,,,
"CCCCCCCCCCCCC/C=C/[C@@H](O)[C@@H](N)COP(=O)([O-])OCC[N+](C)(C)C [SPC, Sphingosylphosphorylcholine]","stimulated an increase in [Ca^2+]i in GPR4-, but not vector-transfected MCF10A cells",63 nM,4 fold,996 fmole/10^5 cells,36 nM,successfully competed for binding,105 nM,more than 50%,four to five-fold
lysophosphatidylcholine [LPC],,,,,159 nM,,1100 nM,> 95%,four to five-fold
